Results on one molecule are retold here after patent US8497279B2, “Treatment for discoid lupus” (Rigel Pharmaceuticals, Inc., priority 2011, dated 2013).

Where a name gives a salt, the structure may show the parent alone.

The subject of one test is JAK1/JAK2 pathway. As to the kind of experiment: A549 epithelial line stimulated with IFNγ, ICAM-1 surface expression (FACS). The class given is cell-based, human. As to conditions: A549 cells, IFNγ 75 ng/mL, 24 hours, ICAM-1 expression; read-out: Example 5 IC50. The text has this:
The JAK activity of the compounds described herein may also be characterized by assaying the effect of compounds I and II described herein on A549 lung epithelial cells and U937 cells. A549 lung epithelial cells and U937 cells up-regulate ICAM-1 (CD54) surface expression in response to a variety of different stimuli. Therefore, using ICAM-1 expression as readout, test compound effects on different signaling pathways can be assessed in the same cell type. Stimulation with IL-1β through the IL-1β receptor activates the TRAF6/NFκB pathway resulting in up-regulation of ICAM-1. IFNγ induces ICAM-1 up-regulation through activation of the JAK1/JAK2 pathway. The up-regulation of ICAM-1 can be quantified by flow cytometry across a compound dose curve and EC50 values are calculated. […]
A549 lung epithelial cells up-regulate ICAM-1 (CD54) surface expression in response to a variety of different stimuli. Therefore, using ICAM-1 expression as readout, compound effects on different signaling pathways can be assessed in the same cell type. […] In this example, the up-regulation of ICAM-1 by IFNγ was assessed. […]
On day three, the cell media was removed and the cells were washed with 200 μL PBS (phosphate buffered saline). […] Cells were washed with ice cold FACS buffer (PBS+2% FBS) and surface ICAM-1 expression was analyzed by flow cytometry. […]

Another test deals with primary human T-cells. The test can be described thus: Primary human T-cell proliferation assay stimulated with IL-2 (CellTiter-Glo). Particulars: primary human T-cells, IL-2, 72 hours, ATP readout; read-out: Example 4 IC50. In kind it is cell-based. The source says:
In this assay, primary human T-cells derived from peripheral blood and pre-activated through stimulation of the T-cell receptor and CD28, proliferate in culture in response to the cytokine Interleukin-2 (IL-2). This proliferative response is dependent on the activation of JAK1 and JAK3 tyrosine kinases, which phosphorylate and activate the transcription factor Stat-5. […] A reduction in cell proliferation compared to control conditions is indicative of inhibition of the JAK kinase pathway. An exemplary assay of this type is described in greater detail below.
Primary human T-cells derived from peripheral blood and pre-activated through stimulation of the T-cell receptor and CD28, proliferate in vitro in response to the cytokine Interleukin-2 (IL-2). This proliferative response is dependent on the activation of JAK-1 and JAK-3 tyrosine kinases, which phosphorylate and activate the transcription factor Stat-5.
Human primary T cells were prepared as follows. […] The lymphocytes at the serum: ficoll interface were recovered and washed twice with 5 volumes of PBS. […] The primary T-cells were stimulated for 3-4 days, then transferred to a fresh flask and maintained in RPMI with 10% FBS and 40 U/mL IL-2.
Primary T-cells were washed twice with PBS to remove the IL-2 and resuspended in Yssel's medium at 2×10^6 cells/mL. 50 μL of cell suspension containing 80 U/mL IL-2 was added to each well of a flat bottom 96 well black plate. For the unstimulated control, IL-2 was omitted from the last column on the plate. […] 50 μL of 2× compound was added per well in duplicate and the cells were allowed to proliferate for 72 hours at 37° C.
Proliferation was measured using CellTiter-Glo® Luminescent Cell Viability Assay (Promega), which determines the number of viable cells in culture based on quantitation of the ATP present, as an indicator of metabolically active cells. The substrate was thawed and allowed to come to room temperature. After mixing the Cell Titer-Glo reagent and diluent together, 100 μL was added to each well. […]

As to `C#CCOc1ccc(Nc2nc(Nc3ccc(C)c(S(=O)(=O)NC(=O)CC)c3)ncc2F)cc1` [VI, 5-Fluoro-N2-[4-methyl-3-(N-propionylaminosulfonyl)phenyl]-N4-[4-(2-propynyloxy)phenyl]-2,4-pyrimidinediamine Arginine Salt], the IC50 – broadly, the concentration that inhibits the measured activity by half – in the test on JAK1/JAK2 pathway worked out at 4.97 µM; in the test on primary human T-cells it was 262 nM.
